Results as given in publication PMC7870753, “Population pharmacokinetics of ATR inhibitor berzosertib in phase I studies for different cancer types” (Cancer Chemotherapy and Pharmacology, 2020).
Like-named read-outs stand apart in the source and are kept apart here.

Key:
[1] = Population PK analysis (non-linear mixed-effect, two-compartment linear model) of berzosertib plasma concentrations, Studies 001 and 002; type: in vivo; settings: for cov (Q, V2) / cov (V1, Q) / cov (V1, V2): covariance; for clearance: human, plasma, read-out: Clearance CL (converted)
Method: Longitudinal berzosertib plasma concentration and dosing data from the two phase I clinical trials, described above, were available for the analysis. The studies were performed in accordance with the Declaration of Helsinki; all participants provided written informed consent before blood samples were collected.
Study 001 (Online Resource Figure S1) was a phase I, open-label, first-in-human multiple ascending dose study to investigate the safety, tolerability, and PK of berzosertib alone and in combination with cytotoxic chemotherapy in patients with advanced solid tumors. The RP2D or maximum tolerated dose was determined in dose escalation parts A and B with further evaluation of safety and efficacy in expansion cohorts (parts C1–3). PK data were available from 170 patients who received twice-weekly 1-h intravenous infusions of berzosertib (18–210 mg/m^2) during a 7–14-day monotherapy lead-in. This preceded combination with chemotherapies, administered on day 1, and berzosertib administered on days 2 and 9 every 21 days following (1) gemcitabine, or cisplatin and gemcitabine (54 patients, Part A); (2) cisplatin (29 patients, Part B); (3) gemcitabine in patients with non-small cell lung cancer (NSCLC; 36 patients, Part C1); (4) cisplatin in patients with triple-negative breast cancer (TNBC) basaloid subtype and BRCA wild type (37 patients, Part C2); cisplatin or carboplatin in patients with platinum-resistant small cell lung cancer (SCLC; 14 patients, Part C3). Berzosertib was also evaluated in combination with irinotecan in a subsequent study cohort (Part B2). In Study 001, Parts A and B, rich PK sampling (pre-dose, 0.5, 1 h (end of infusion), 1.5, 2, 4, 8, 24, 48, and 72 h after the start of infusion) was performed for most patients following berzosertib monotherapy in the lead-in. Similar rich PK sampling was conducted on cycle 1 days 2 through 5 after the first dose of berzosertib in combination with other agents in study parts A and B or during dose escalation. Additional sparse samples (pre-dose and 2 h after the end of infusion) were taken during cycle 1, day 9 and cycle 2, day 2. In the expansion cohorts Parts C1, C2, and C3, limited PK sampling was performed on cycle 1 day 2: pre-dose, 0.5, 1 h (end of infusion), 1.5, 2, 4, and (optionally) 8 h after the start of infusion. Similar sampling was performed on cycle 1, day 9 on a portion of the participants before being removed by amendment.
Study 002 (Online Resource Figure S1) was a phase I, open-label, multiple ascending dose study to investigate the safety, tolerability, and PK/PD profile of berzosertib as a single agent and in combination with carboplatin or carboplatin and paclitaxel in patients with advanced solid tumors. PK data were available from 70 patients who received 1-h intravenous infusions of berzosertib (1) as a single agent once weekly (11 patients, Part A1); (2) as a single agent twice weekly (6 patients, Part A2); (3) on days 2 and 9 every 21 days following carboplatin on day 1 (23 patients, Part B1); (4) on days 2 and 9 every 21 days following carboplatin and paclitaxel on day 1 (15 patients, Part B2); (5) on days 2 and 9 following carboplatin on day 1 every 21 days in patients with advanced solid tumors and lymphoma with defects in the DDR (15 patients, Part C). In Study 002, in all study parts, rich PK sampling (pre-dose, 0.5, 1 h (end of infusion), 1.5, 2, 4, 8, 24, and 48 h after start of infusion) was performed after the first dose of berzosertib. In Part A1, additional sparse samples (pre-dose, 0.5–2 h after the end of infusion) were collected on cycle 1, day 8 and day 15. […]

[2] = tested on: p-Chk1; set-up: method as in earlier work; settings: cited from earlier work
[3] = cited from earlier work
[4] = tested on: CYP3A4; settings: based on in vitro data; cited from earlier work
[5] = cited from earlier work; remark: listed apart in the source
[6] = tested on: patient-derived non-small cell lung tumor xenografts; set-up: method as in PMID 25010037; settings: multiple patient-derived non-small cell lung tumor xenografts; cited from earlier work
[7] = tested on: acute myeloid leukemia cells; set-up: method as in PMID 29789314; settings: in combination with gemcitabine; cited from earlier work
[8] = tested on: acute myeloid leukemia; set-up: method as in PMID 29789314; settings: orthotopic mouse model, in combination with gemcitabine; cited from earlier work
[9] = tested on: pancreatic cancer cells; set-up: method as in PMID 23222511, PMID 22825331; settings: pancreatic cancer cells vs normal cells; cited from earlier work
[10] = tested on: pancreatic cancer xenografts; set-up: method as in PMID 23222511, PMID 22825331; settings: after radiation and gemcitabine-based chemoradiation; cited from earlier work
[11] = full covariate model, typical patient, intravenous infusion

CNCc1ccc(-c2cc(-c3nc(-c4ccc(S(=O)(=O)C(C)C)cc4)cnc3N)on2)cc1 [berzosertib, 5-(4-(Isopropylsulfonyl)phenyl)-3-(3-(4-((methylamino)methyl)phenyl)isoxazol-5-yl)pyrazin-2-amine]
Additive residual error ([1]; base model): 1.9 ng/mL
Central volume V1 ([1]; base model): 111 L
Peripheral volume V2 ([1]; base model): 861 L
Proportional residual error [sd] ([1]; base model): 0.22
cov (Q, V2) ([1]; base model): 0.089
cov (V1, Q) ([1]; base model): 0.26
cov (V1, V2) ([1]; base model): 0.093
IIV on V1 [var] ([1]; base model, variance): 0.38
IIV on Q [var] ([1]; base model, variance, first line so headed (r14)): 0.24
IIV on Q [var] ([1]; base model, variance, second line so headed (r16)): 0.071
PK interaction with evaluated chemo-combinations ([1]; berzosertib with gemcitabine, cisplatin, carboplatin, paclitaxel combinations): no evidence of a clinically significant PK interaction
V1 lower in female patients than in male patients ([1]; female vs male patients): 15.8%
Additive residual error ([1]; full covariate model): 1.73 ng/mL
Proportional residual error [sd] ([1]; full covariate model): 0.22
cov (Q, V2) ([1]; full covariate model): 0.090
cov (V1, Q) ([1]; full covariate model): 0.25
cov (V1, V2) ([1]; full covariate model): 0.081
Central volume V1 [1, 11]: 118 L
Peripheral volume V2 [1, 11]: 1030 L
IIV on Q [var] ([1]; full covariate model, variance): 0.24
IIV on V1 [var] ([1]; full covariate model, variance): 0.32
IIV on V2 [var] ([1]; full covariate model, variance): 0.047
increase for V1 ([1]; high extreme of albumin): 18%
median increase in CL ([1]; high extreme of body weight): 12%
median increase in V1 ([1]; high extremes of tumor size at baseline): 24%
clearance ([1]; intravenous, base model): 933 mL/min
clearance ([1]; full covariate model, typical patient, intravenous infusion, 240 patients, 18–480 mg/m^2): 1080 mL/min
median decrease for V2 ([1]; low extreme of age): 16.7%
median decrease for V1 ([1]; low extreme of albumin): 28.6%
decrease in CL ([1]; low extreme of body weight): 9%
higher CL in patients with TNBC ([1]; patients with TNBC vs female patients with other tumor types): 42%
total plasma concentration needed to reach 50% of maximal inhibition (IC50) of p-Chk1 in humans ([2]; estimated from multiple preclinical tumor models with carboplatin, irinotecan, cisplatin or gemcitabine, adjusted for species differences in plasma protein binding): approximately 110 ng/mL
inhibition of p-Chk1 ([2]; tumor-bearing mice, in combination with various chemotherapies): dose-dependent inhibition of p-Chk1
PK linearity over the dose range ([3]; 18–480 mg/m^2): linear
renal excretion ([3]; Study 001): 5–6%
terminal half-life ([3]; patients, intravenous, 18–480 mg/m^2): approximately 17 h
elimination via metabolism, enzyme [4]: mainly mediated by CYP3A4
recommended phase II dose (RP2D) ([5]; days 2 and 9 following 75 mg/m^2 cisplatin (day 1)): 140 mg/m^2
recommended phase II dose (RP2D) ([5]; days 2 and 9 following 1000 mg/m^2 gemcitabine (days 1 and 8)): 210 mg/m^2
recommended phase II dose (RP2D) ([5]; days 2 and 9 following carboplatin AUC 5 (day 1)): 90 mg/m^2
efficacy in combination with cisplatin [6]: dramatically enhanced the efficacy of cisplatin
sensitization of cells [7]: acutely sensitized acute myeloid leukemia cells
survival [8]: increased survival
sensitization to radiation and/or gemcitabine [9]: selectively sensitized pancreatic cancer cells but not normal cells
growth delay of xenografts [10]: markedly prolonged growth delay
normal cell or tissue toxicity [10]: without augmenting normal cell or tissue toxicity
